In data set [1] the test system is HeLa cells. Description: Cell viability assay (CCK-8) of DDP probe. In kind it is cell-based. Conditions: 10-100 μM, 6 h. The protocol: (§1) In another embodiment the DDP probes has been designed to visuals exogenous sulfur species in a living system. […] Additionally, the selectivity of the probes can be seen in FIG. 10. […] The probe (20 μm) was applied to the cells for 30 minutes, after which the extracellular probe was washed off and only a weak fluorescence was observed.
HeLa cells were cultured in DMEM high glucose medium supplemented with 10% fetal bovine serum (FBS) at 37° C. under an atmosphere of 5% CO2 and 95% air. The cells were then inoculated in 96-well plates and cultured overnight. DDP-1 in FBS-free medium were administered and cultured for 6 h. The cell viability was measured by cell counter kit (CCK)-8. The absorbance at 450 nm was measured with a microplate reader. Optical density (OD) of the 9 wells in the indicated groups was used to calculate percentage of cell viability according to the formula below: Percentage of cell viability=OD treatment group/OD control group×100% Cell Culture and Fluorescence Imaging

For data set [2], the system named is HeLa cells. Nature of the data set: Fluorescence imaging of H2S and H2Sn with DDP probe in cells. In kind it is cell-based. The note with it: probe 20 μm 30 min. The protocol: as §1
The cells were grown on glass-bottom culture dishes (Corning Inc.) in DMEM supplemented with 10% (v/v) FBS, penicillin (100 U/mL) and streptomycin (100 μg/mL) at 37° C. under a humidified atmosphere containing 5% CO2. Before use, the adherent cells were washed one time with FBS-free DMEM. […] After removal of excess probe and washed with PBS (pH 7.4), the cells were incubated with 30 μM Na2S2 or 30 μM Na2S4 at room temperature for 20 min in PBS buffer (pH 7.4, containing 100 μM CTAB). Cell imaging was carried out after removal of the culture solution. For images of CSE-overexpressed COS7 cells.

On to `[N-]=[N+]=Nc1ccc2c(CC(=O)N3CCN(c4ccc5c(c4)Oc4cc(OC(=O)c6ccccc6SC(=O)c6ccccc6)ccc4C54OC(=O)c5ccccc54)CC3)cc(=O)oc2c1` (stereo not drawn) [DDP-1], for which the “cytotoxicity (cell viability)” value in the data set on HeLa cells [1] is “low cytotoxicity”. Besides, the “fluorescence in cells after Na2S treatment” value in the data set with HeLa cells [2] (Na2S 100 μm, blue and green channel) is reported as “apparent fluorescence enhancement”. In addition, in the data set on HeLa cells [2] (blue vs green channel), the “fluorescence in cells after Na2S2 or in situ generated H2Sn” value is listed as “blue channel decreased with a coinstantaneous increase in the green channel”.

Source of the values: patent publication US10520509B2 (Washington State University, priority 2016, dated 2019).
